In general, pIC50 refers to −log10 of the IC50, conventionally taken in molar units. Broadly, the inhibition is how much of the control response was suppressed.

Data on 17 compounds can be found in ChEMBL document CHEMBL3751782, “Synthesis and biological evaluation of quinoxaline di-N-oxide derivatives with in vitro trypanocidal activity” (Bioorg Med Chem Lett, 2016).

The test system of one data set is Vero. Briefly: Cytotoxicity against African green monkey Vero cells after 48 hrs by MTT assay. Format: cell-based. Particulars: Chlorocebus sabaeus. (Formazan colour is commonly taken as a measure of viable cells.)
Data set [1] concerns Trypanosoma cruzi. Briefly: Trypanocidal activity against Trypanosoma cruzi Tulahuen 2 epimastigotes after 5 days. The class given is functional, organism-based. As to conditions: Tulahuen 2, 120 h.
Data set [2] in a line: Selectivity index, ratio of IC50 for African green monkey Vero cells to IC50 for Trypanosoma cruzi Tulahuen 2 epimastigotes. The class given is toxicity, cell-based. As to conditions: read-out: Ratio IC50.
In data set [3] the test system is Trypanosoma cruzi. Briefly: Trypanocidal activity against Trypanosoma cruzi Tulahuen 2 epimastigotes at 25 uM after 5 days. Particulars: Tulahuen 2, 120 h. Format: functional.

Structures are written as SMILES. pIC50: −log10 of the molar value. A value given as a limit tells only on which side of the number the result lay.

Take `O=C(c1ccc(F)cc1)c1c(C(F)(F)F)[n+]([O-])c2cc(F)c(F)cc2[n+]1[O-]`: the pIC50 in the data set with Vero is 5.52; with Trypanosoma cruzi [1] it was 6.22. Moreover, the selectivity ratio in data set [2] came out at 5. At 25 µM the inhibition in the data set with Trypanosoma cruzi [3] was 91.8%.
In the data set on Trypanosoma cruzi [1], `O=C(c1ccc(F)cc1)c1c(C(F)(F)F)[n+]([O-])c2ccc(Cl)cc2[n+]1[O-]` gave a pIC50 of 6.00. The compound also had an inhibition at 25 µM with Trypanosoma cruzi [3] of 86.1%.
Turning to `CC(C)C(=O)c1c(C(F)(F)F)[n+]([O-])c2cc(N(C)C)c(N3CCOCC3)cc2[n+]1[O-]`, the pIC50 in the data set on Trypanosoma cruzi [1] was 4.97. This compound also displayed an inhibition at 25 µM in the data set with Trypanosoma cruzi [3] of 86%.
`O=C(c1ccc(F)cc1)c1c(C(F)(F)F)[n+]([O-])c2ccc(F)cc2[n+]1[O-]`: the pIC50 in the data set with Vero was 5.36; with Trypanosoma cruzi [1], 5.96. The selectivity ratio in data set [2] turned out to be 4. This compound returned an inhibition at 25 µM with Trypanosoma cruzi [3] of 95.6%.
In the case of `O=C(c1ccco1)c1c(C(F)(F)F)nc2cc(Cl)c(N3CCOCC3)cc2[n+]1[O-]`, the results for the pIC50 with Vero and in the data set with Trypanosoma cruzi [1] were 3.34 and 4.92, respectively. Moreover, the selectivity ratio in data set [2] was determined as 37.6. The compound further returned an inhibition at 25 µM with Trypanosoma cruzi [3] of 91.7%.
For `CC(C)C(=O)c1c(C(F)(F)F)[n+]([O-])c2cc(N3CCOCC3)c(N3CCOCC3)cc2[n+]1[O-]`, the pIC50 in the data set on Trypanosoma cruzi [1] is 4.77. Further, at 25 µM the inhibition in the data set with Trypanosoma cruzi [3] was 66.3%.
In the data set on Trypanosoma cruzi [1], `O=C(c1ccc(F)cc1)c1c(C(F)(F)F)[n+]([O-])c2cc(Cl)c(Cl)cc2[n+]1[O-]` showed a pIC50 of 5.89. Further, in the data set on Trypanosoma cruzi [3], the inhibition at 25 µM stood at 89.3%.
Consider `CC(=O)c1c(C(F)(F)F)[n+]([O-])c2cc(F)c(N3CCSCC3)cc2[n+]1[O-]`, for which the pIC50 in the data set with Trypanosoma cruzi [1] is 5.70. In the data set on Trypanosoma cruzi [3], this compound yielded an inhibition at 25 µM of 83.4%.
In turn, `CC(=O)c1c(C(F)(F)F)[n+]([O-])c2cc(F)c(N3CCC(N4CCOCC4)CC3)cc2[n+]1[O-]` gave a negative logarithm of the IC50 (pIC50) in the data set on Trypanosoma cruzi [1] of 5.28. For the same compound, the inhibition at 25 µM in the data set on Trypanosoma cruzi [3] came to 93.4%.
In the case of `CC(=O)c1c(C(F)(F)F)[n+]([O-])c2cc(F)c(N3CCOCC3)cc2[n+]1[O-]`, the pIC50 in the data set with Trypanosoma cruzi [1] was 5.19. Further, testing at 25 µM with Trypanosoma cruzi [3] gave an inhibition of 100%.
For the compound `CC(=O)c1c(C(F)(F)F)[n+]([O-])c2cc(N3CCCCC3)c(N3CCCCC3)cc2[n+]1[O-]`, the pIC50 in the data set with Vero was 5.35; in the data set on Trypanosoma cruzi [1] it was 5.64. Further, in data set [2], the selectivity ratio stood at 1.7. Further, in the data set with Trypanosoma cruzi [3], the inhibition at 25 µM stood at 100%.
As to `CCOC(=O)c1c(C(F)(F)F)nc2cc(Cl)c(N3CCOCC3)cc2[n+]1[O-]`, the negative-log IC50 (pIC50) in the data set on Trypanosoma cruzi [1] is under 4.60. In the data set with Trypanosoma cruzi [3], this compound had an inhibition at 25 µM of 54.6%.
`CC(=O)c1c(C(F)(F)F)[n+]([O-])c2cc(N3CCC(O)CC3)c(N3CCC(O)CC3)cc2[n+]1[O-]` had a pIC50 with Trypanosoma cruzi [1] of under 4.60. In the data set with Trypanosoma cruzi [3], this compound gave an inhibition at 25 µM of 15.7%.
As to `CC(=O)c1c(C(F)(F)F)[n+]([O-])c2cc(F)c(N3CCCCC3)cc2[n+]1[O-]`, the pIC50 was 4.82 in the data set on Vero and 5.59 in the data set on Trypanosoma cruzi [1]. In data set [2], the selectivity ratio was determined as 5.8. The same compound yielded an inhibition at 25 µM with Trypanosoma cruzi [3] of 96.9%.
`CC(=O)c1c(C(F)(F)F)[n+]([O-])c2cc(F)c(N3CCC(O)CC3)cc2[n+]1[O-]` showed a pIC50 in the data set with Trypanosoma cruzi [1] of 5.20. In the data set on Trypanosoma cruzi [3], the inhibition at 25 µM was 84.9%.
The like results for `O=C(Cn1ccnc1[N+](=O)[O-])NCc1ccccc1` [BENZNIDAZOLE] were, in that order, 5.10 and 100%.
For `CC1CS(=O)(=O)CCN1/N=C/c1ccc([N+](=O)[O-])o1` (stereo not drawn) [NIFURTIMOX], the inhibition at 25 µM in the data set with Trypanosoma cruzi [3] was found to be 100%.
